Laboratory results: the supplement of paper PMC13380429

Key:
Conditions in all cases: 72 h
Calu-3 [1] = assay: cell viability relative to DMSO; higher = less toxic
Vero E6 [2] = assay: as above
U2OS [3] = assay: as above
Caco-2 [4] = assay: as above
HepG2 [5] = assay: as above
Calu-3 [6] = assay: drug sensitivity score (DSS) for viability; higher = more toxic; extreme values may be limits of the assay
Vero E6 [7] = assay: as above
U2OS [8] = assay: as above
Caco-2 [9] = assay: as above
HepG2 [10] = assay: as above
Calu-3 [11] = assay: relative viability EC50 (midpoint between 100% and the lowest measured viability); higher = less toxic
Caco-2 [12] = assay: as above
Vero E6 [13] = assay: as above
U2OS [14] = assay: as above
HepG2 [15] = assay: as above

| SMILES | cell viability (Calu-3 [1]; 1 nM) [%] | cell viability (Calu-3 [1]; 10 nM) [%] | cell viability (Calu-3 [1]; 100 nM) [%] | cell viability (Calu-3 [1]; 1000 nM) [%] | cell viability (Calu-3 [1]; 10000 nM) [%] | cell viability (Vero E6 [2]; 1 nM) [%] | cell viability (Vero E6 [2]; 10 nM) [%] | cell viability (Vero E6 [2]; 100 nM) [%] | cell viability (Vero E6 [2]; 1000 nM) [%] | cell viability (Vero E6 [2]; 10000 nM) [%] | cell viability (U2OS [3]; 1 nM) [%] | cell viability (U2OS [3]; 10 nM) [%] | cell viability (U2OS [3]; 100 nM) [%] | cell viability (U2OS [3]; 1000 nM) [%] | cell viability (U2OS [3]; 10000 nM) [%] | cell viability (Caco-2 [4]; 1 nM) [%] | cell viability (Caco-2 [4]; 10 nM) [%] | cell viability (Caco-2 [4]; 100 nM) [%] | cell viability (Caco-2 [4]; 1000 nM) [%] | cell viability (Caco-2 [4]; 10000 nM) [%] | cell viability (HepG2 [5]; 1 nM) [%] | cell viability (HepG2 [5]; 10 nM) [%] | cell viability (HepG2 [5]; 100 nM) [%] | cell viability (HepG2 [5]; 1000 nM) [%] | cell viability (HepG2 [5]; 10000 nM) [%] | drug sensitivity score (Calu-3 [6]) | drug sensitivity score (Vero E6 [7]) | drug sensitivity score (U2OS [8]) | drug sensitivity score (Caco-2 [9]) | drug sensitivity score (HepG2 [10]) | relative viability EC50 (Calu-3 [11]) [µM] | relative viability EC50 (Caco-2 [12]) [µM] | relative viability EC50 (Vero E6 [13]) [µM] | relative viability EC50 (U2OS [14]) [µM] | relative viability EC50 (HepG2 [15]) [µM] |
| --- | --- | --- | --- | --- | --- | --- | --- | --- | --- | --- | --- | --- | --- | --- | --- | --- | --- | --- | --- | --- | --- | --- | --- | --- | --- | --- | --- | --- | --- | --- | --- | --- | --- | --- | --- |
| CN1CCN(c2cccc(Nc3nc4c(-c5ccc(S(C)(=O)=O)cc5)cccn4n3)c2)CC1 | 97.9 | 99.4 | 91.8 | 125 | 136 | 96.4 | 95.1 | 94.8 | 96.3 | 73.6 | 96.1 | 102 | 94.8 | 95.8 | 68.9 | 78.9 | 95.2 | 95.1 | 93.1 | 91 | 100 | 95.9 | 94.1 | 84.8 | 58.9 | 0 | 1.6 | 2.1 | 0 | 3.6 | > 10 | > 10 |  |  |  |
| COc1cc(NC(=O)c2ccccn2)ccc1Cl |  |  |  |  |  | 101 | 99 | 96.3 | 102 | 95.3 | 100 | 95.3 | 101 | 99.4 | 96.3 | 100 | 94.5 | 95.3 | 90.8 | 92.3 | 92.9 | 99.2 | 91 | 102 | 94.9 |  | 0 | 0 | 0 | 0 |  | > 10 | > 10 | > 10 | > 10 |
| CS(=O)(=O)CCNCc1nc(-c2ccc3ncnc(Nc4ccc(OCc5cccc(F)c5)c(Cl)c4)c3c2)cs1 |  |  |  |  |  | 95 | 98.3 | 93.3 | 79 | 72.5 | 99.9 | 100 | 96.7 | 94.2 | 89.8 | 97.1 | 97.5 | 90.5 | 80.8 | 73.1 | 106 | 111 | 93.5 | 102 | 104 |  | 3.7 | 0 | 3.5 | 0 |  |  |  | > 10 | > 10 |
| Cn1ccc2cc3c(cc21)CCN3C(=O)Nc1cccnc1 |  |  |  |  |  | 99.1 | 96.8 | 100 | 95.5 | 100 | 98.2 | 102 | 93.9 | 96 | 95.1 | 88.8 | 93.2 | 98.1 | 104 | 81.3 | 105 | 114 | 95.7 | 95.3 | 100 |  | 0 | 0 | 0.1 | 0 |  | > 10 | > 10 | > 10 | > 10 |
| Nc1ncnc2[nH]nc(Nc3ccc(F)cc3)c12 | 102 | 101 | 101 | 95.6 | 79.2 | 107 | 103 | 99.8 | 101 | 54.4 | 98.5 | 98.9 | 98.4 | 96 | 83 | 95 | 93.5 | 106 | 93.1 | 73.4 | 114 | 101 | 108 | 96.5 | 66.2 | 1.2 | 2.3 | 0.8 | 2.1 | 2.1 | > 10 |  |  | > 10 |  |
| O=C(C1CC1)N1CC[C@@H](Cc2n[nH]c(=O)n2-c2ccc(-c3ccc4occc4c3)cc2)C1 |  |  |  |  |  | 97.4 | 101 | 98.8 | 100 | 98.9 | 102 | 96.2 | 101 | 97.3 | 99.7 | 104 | 97.8 | 91.9 | 89.5 | 76.3 | 109 | 106 | 93.2 | 80.2 | 71.2 |  | 0 | 0 | 1.7 | 3.6 |  | > 10 | > 10 | > 10 |  |
| O=C1NC(=O)c2cc(Nc3ccccc3)c(Nc3ccccc3)cc21 | 108 | 96.9 | 106 | 98.5 | 89.3 | 96.3 | 99.2 | 98.6 | 97.4 | 86.3 |  |  |  |  |  | 92.3 | 101 | 91.7 | 102 | 82.5 | 109 | 106 | 105 | 100 | 56.4 | 0 | 0.3 |  | 0.3 | 2.2 | > 10 | > 10 | > 10 |  |  |
| O=C1Nc2cc(Cl)c(Cl)cc2N2CCNC[C@H]12 | 103 | 95.1 | 97.3 | 97.7 | 92.5 | 104 | 100 | 100 | 99.1 | 95.7 | 102 | 94.9 | 100 | 95 | 96.2 | 110 | 100 | 102 | 92.2 | 85.9 |  |  |  |  |  | 0 | 0 | 0 | 0.7 |  | > 10 | > 10 | > 10 | > 10 |  |
